Experimental findings from patent US20240018121A1, “NOVEL HETEROAROMATIC COMPOUNDS EXHIBITING ANTIFUNGAL ACTIVITY AND THEIR METHOD OF USE” (FOX CHASE CHEMCIAL DIVERSITY CENTER, INC., priority 2020, published 2024) are described below.

Common to all, as to type: cell-based
Experiment [1] has as its system Aspergillus flavus AFL1 (ATCC MYA-3631). Briefly: Fungal MIC Protocol, Aspergillus flavus. Conditions: for MIC: Aspergillus flavus, read-out: MIC Aspergillus flavus 3631. The essentials:
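The MIC against Aspergillus flavus was measured by broth microdilution in RPMI/MOPS medium at pH 7.0. Compounds were diluted to 200 ug/mL from DMSO stocks, then ten serial dilutions were tested in duplicate in round bottom 96-well plates. Spores adjusted to a final OD530 of 0.002 were added, with no-cell and no-compound control wells, and plates were incubated 48 hours at 35° C.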

The test system of experiment [2] is Aspergillus fumigatus T33439 (ATCC MYA-3626). In words: Fungal MIC Protocol, Aspergillus fumigatus. To be noted: for MIC: Aspergillus fumigatus, read-out: MIC Aspergillus fumigatus 3626. The essentials:
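This broth microdilution MIC test used RPMI/MOPS medium at pH 7.0 with glucose. Compounds were diluted from DMSO stock to 200 ug/mL and serially diluted ten times in 96-well round bottom plates. Equal volumes of compound and Aspergillus spore suspension at OD530 0.002 were combined, with controls of compound without cells and spores without compound. Plates were bagged and incubated at 35° C. for 48 hours.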

In experiment [3] the test system is Fusarium falciforme FS1 (ATCC MYA-3636). Briefly: Fungal MIC Protocol, Fusarium falciforme. To be noted: for MIC: Fusarium falciforme, read-out: MIC Fusarium falciforme 3636. The essentials:
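MIC against Fusarium falciforme was determined by broth microdilution in RPMI/MOPS medium containing glucose. Compounds started at 200 ug/mL and were serially diluted ten times, then combined with harvested spores adjusted to an OD530 of 0.005. Controls held compound without cells and spores without compound. Plates were bagged and incubated at 35° C. for 48 hours.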

Experiment [4] deals with Fusarium solani (ATCC 58877). Briefly: Fungal MIC Protocol, Fusarium solani. Conditions: for MIC: Fusarium solani, read-out: MIC Fusarium solani 58877. The essentials: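 Broth microdilution MIC test against Fusarium solani in RPMI/MOPS medium at pH 7.0. Compounds from DMSO stock were diluted to 200 ug/mL, then serially diluted ten times and plated in duplicate at 50 μl per well. 50 ul of spore suspension at OD530 0.005 was added. Controls had compound without cells and spores without compound. Plates were mixed gently, bagged, and incubated at 35° C. for 48 hours.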

The subject of experiment [5] is Mucor circinelloides 1463(62) (ATCC 26759). In words: Fungal MIC Protocol, Mucor circinelloides (MIC-50). To be noted: for MIC50: Mucor circinelloides, read-out: MIC-50 Mucorales circinelloides 26579. Put shortly: (§1)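 MIC-type endpoint: >50% growth inhibition, judged by eye with an inverted mirror. Spores in RPMI/MOPS (pH 7.0, ~2×10^4 cfu/mL) were incubated 48 hours at 35° C with duplicate serial compound dilutions.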

The test system of experiment [6] is Mucor ramosissimus 057718 (ATCC 90286). In words: Fungal MIC Protocol, Mucor ramosissimus (MIC-50). To be noted: for MIC50: Mucor ramosissimus, read-out: MIC-50 Mucorales ramosissimus 90286. Put shortly:
as §1

The subject of experiment [7] is Candida albicans GDH2346. In words: Candida Minimal Inhibitory Concentration (MIC). To be noted: for MIC50: Candida albicans, read-out: MIC-50 Candida albicans GDH2346. The essentials: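 Twofold serial dilutions from 200 μg/mL in RPMI 1640/MOPS with glucose, pH 7.0, tested in duplicate against yeast from an OD600 1.0 suspension diluted 1:1000. Incubated at 35° C; OD600 read at 24 and 48 h.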

The mark [8] stands for this setting: 100% growth inhibition at 48 hours.
Where [9] appears, read: ATCC58877, 100% growth inhibition at 48 hours.
[10] abbreviates: ATCC26759, 50% growth inhibition at 48 hours.
Setting [11] is: ATCC90286, 50% growth inhibition at 48 hours.
Where [12] appears, read: GDH2346, 50% growth inhibition at 48 hours.
Where [13] appears, read: 50% growth inhibition at 48 hours.

In brackets after ≈: the same amount, converted by molar mass. Structures can show the parent of a compound that is named as a salt. Where two headings read alike, the source gives them in different places.

As a reminder, the MIC is the lowest concentration found to suppress growth. Take `Cn1c(-c2ccc(C3=CCN(C(=N)N)CC3)c(F)c2)nnc1-c1ccc(C2=CCN(C(=N)N)CC2)cc1F` [Example 79, 4-(4-{5-[4-(1-carbamimidoyl-1,2,3,6-tetrahydropyridin-4-yl)-2-fluorophenyl]-4-methyl-4H-1,2,4-triazol-3-yl}-2-fluorophenyl)-1,2,3,6-tetrahydro pyridine-1-carboximidamide trifluoroacetate]: the MIC in experiment [1] (setting [8]) turned out to be 0.1 µg/mL; in experiment [2] (setting [8]), 0.1 µg/mL; in experiment [3] (setting [8]) it was 0.05 µg/mL; in experiment [4] (setting [9]) it was 0.1 µg/mL. Also, the results for the MIC50 in experiment [5] (setting [10]), in experiment [6] (setting [11]) and in experiment [7] (setting [12]) were 0.2 µg/mL, 0.39 µg/mL and 0.1 µg/mL, respectively.

As for `N=C(N)N1CC=C(c2ccc(-c3nnc(-c4ccc(C5=CCN(C(=N)N)CC5)cc4)n3C3CCC3)cc2)CC1` [Example 6, 4,4′-(4,4′-(4-Cyclobutyl-4H-1,2,4-triazole-3,5-diyl)bis(4,1-phenylene))bis(5,6-dihydropyridine-1(2H)-carboximidamide)], the MIC in experiment [1] (setting [8]) was 0.39 µg/mL (≈ 0.748 µM); in experiment [2] (setting [8]) it was 0.2 µg/mL (≈ 0.383 µM); in experiment [3] (setting [8]) it was less than 0.1 µg/mL; in experiment [4] (setting [9]), 0.39 µg/mL (≈ 0.748 µM). The MIC50 in experiment [5] (setting [10]) came out at 0.78 µg/mL (≈ 1.5 µM); in experiment [6] (setting [11]) it was 1.56 µg/mL (≈ 2.99 µM); in experiment [7] (setting [12]), 3.13 µg/mL (≈ 6 µM).

Regarding `N=C(N)N1CC=C(c2ccc(-c3nnc(-c4ccc(C5=CCN(C(=N)N)CC5)cc4F)n3Cc3ccccc3)cc2)CC1` [Example 7, 4-(4-(4-Benzyl-5-(4-(1-carbamimidoyl-1,2,3,6-tetrahydropyridin-4-yl)-2-fluorophenyl)-4H-1,2,4-triazol-3-yl)phenyl)-5,6-dihydropyridine-1(2H)-carboximidamide], the MIC in experiment [1] (setting [8]) was 0.78 µg/mL (≈ 1.35 µM); in experiment [2] (setting [8]) it was less than 0.1 µg/mL; in experiment [3] (setting [8]) it was less than 0.1 µg/mL; in experiment [4] (setting [9]), 0.39 µg/mL (≈ 0.677 µM). In addition, the MIC50 in experiment [5] (setting [10]) was 0.78 µg/mL (≈ 1.35 µM); in experiment [6] (setting [11]) it was 1.56 µg/mL (≈ 2.71 µM); in experiment [7] (setting [12]) it was 3.13 µg/mL (≈ 5.44 µM).

Regarding `CC(C)n1c(-c2ccc(C3=CCN(C(=N)N)CC3)cc2)nnc1-c1ccc(C2=CCN(C(=N)N)CC2)cc1` [Example 3, 4,4′-(4,4′-(4-isopropyl-4H-1,2,4-triazole-3,5-diyl)bis(4,1-phenylene))bis(5,6-dihydropyridine-1 (2H)-carboximidamide)], the MIC in experiment [1] (setting [8]), in experiment [2] (setting [8]), in experiment [3] (setting [8]) and in experiment [4] (setting [9]) was less than 0.1 µg/mL throughout. Also, the MIC50 in experiment [5] (setting [10]) is 0.39 µg/mL (≈ 0.765 µM); in experiment [6] (setting [11]), 0.78 µg/mL (≈ 1.53 µM); in experiment [7] (setting [12]), 0.1 µg/mL (≈ 0.196 µM).

For the compound `N=C(N)N1CC=C(c2ccc(-c3nnc(-c4ccc(C5=CCN(C(=N)N)CC5)cc4F)n3C3CC3)c(F)c2)CC1` [Example 17, 4,4′-(4,4′-(4-Cyclopropyl-4H-1,2,4-triazole-3,5-diyl)bis(3-fluoro-4,1-phenylene))bis(5,6-dihydropyridine-1(2H)-carboximidamide)], the MIC was 0.39 µg/mL (≈ 0.717 µM) in experiment [1] (setting [8]), less than 0.1 µg/mL in experiment [2] (setting [8]), less than 0.1 µg/mL in experiment [3] (setting [8]) and 0.39 µg/mL (≈ 0.717 µM) in experiment [4] (setting [9]). Besides, the MIC50 stood at 0.39 µg/mL (≈ 0.717 µM) in experiment [5] (setting [10]), 0.78 µg/mL (≈ 1.43 µM) in experiment [6] (setting [11]) and 3.13 µg/mL (≈ 5.76 µM) in experiment [7] (setting [12]).

For the compound `Cn1c(-c2ccc(C3=CCN(C(=N)N)CC3)cc2)nnc1-c1ccc(C2=CCN(C(=N)N)CC2)cc1F` [Example 78, 4-(4-{5-[4-(1-carbamimidoyl-1,2,3,6-tetrahydropyridin-4-yl)-2-fluorophenyl]-4-methyl-4H-1,2,4-triazol-3-yl}phenyl)-1,2,3,6-tetrahydropyridine-1-carboximidamide trifluoroacetate], the MIC in experiment [1] (48 h) turned out to be 0.1 µg/mL; in experiment [2] (48 h), 0.05 µg/mL; in experiment [3] (48 h), 0.05 µg/mL; in experiment [4] (ATCC58877, 48 h) it was 0.1 µg/mL. Also, the MIC50 in experiment [5] (ATCC26759, 48 h) is 0.2 µg/mL; in experiment [6] (ATCC90286, 48 h) it was 0.78 µg/mL; in experiment [7] (GDH2346, 48 h), 0.2 µg/mL.

Regarding `CNc1cc(C2=CCN(C(=N)N)CC2)cc(F)c1-c1nnc(-c2ccc(C3=CCN(C(=N)N)CC3)cc2)n1C` [Example 23, 4-(4-(5-(4-(1-Carbamimidoyl-1,2,3,6-tetrahydropyridin-4-yl)-2-fluoro-6-(methylamino)phenyl)-4-methyl-4H-1,2,4-triazol-3-yl)phenyl)-5,6-dihydropyridine-1(2H)-carboximidamide], the MIC in experiment [1] (setting [8]) is 0.78 µg/mL (≈ 1.48 µM); in experiment [2] (setting [8]), 0.39 µg/mL (≈ 0.738 µM); in experiment [3] (setting [8]), 0.39 µg/mL (≈ 0.738 µM); in experiment [4] (setting [9]), 0.2 µg/mL (≈ 0.378 µM). Moreover, the MIC50 in experiment [5] (setting [10]) is 0.39 µg/mL (≈ 0.738 µM); in experiment [6] (setting [11]), 1.56 µg/mL (≈ 2.95 µM); in experiment [7] (setting [12]), 0.39 µg/mL (≈ 0.738 µM).

As to `Cn1nc(-c2ccc(C3=CCN(C(=N)N)CC3)cc2)nc1-c1ccc(C2=CCN(C(=N)N)CC2)cc1` [Example 38, 4,4′-(4,4′-(1-Methyl-1H-1,2,4-triazole-3,5-diyl)bis(4,1-phenylene)) bis(5,6-dihydropyridine-1(2H)-carboximidamide)], the “MIC Aspergillus flavus 3631” value in experiment [1] (setting [8]) came to 0.16 µg·mL. Moreover, the “MIC Aspergillus fumigatus 3626” value in experiment [2] (setting [8]) worked out at 0.2 µg·mL. In experiment [3] (setting [8]), the “MIC Fusarium falciforme 3636” value was 0.2 µg·mL. In experiment [4] (setting [8]), the “MIC Fusarium solani 58877” value was less than 0.1 µg·mL. Besides, the “MIC-50 Mucorales circinelloides 26579” value in experiment [5] (setting [13]) was determined as 3.13 µg/mL (≈ 6.5 µM). Besides, the “MIC-50 Mucorales ramosissimus 90286” value in experiment [6] (setting [13]) was 0.78 µg/mL (≈ 1.62 µM). The “MIC-50 Candida albicans GDH2346” value in experiment [7] (setting [13]) was 6.25 µg/mL (≈ 13 µM).

With `CCOCCOCCn1c(-c2ccc(C3=CCN(C(=N)N)CC3)cc2F)nnc1-c1ccc(C2=CCN(C(=N)N)CC2)cc1F` [Example 9, 4,4′-(4,4′-(4-(2-(2-Ethoxyethoxy)ethyl)-4H-1,2,4-triazole-3,5-diyl)bis(3-fluoro-4,1-phenylene))bis(5,6-dihydropyridine-1(2H)-carboximidamide)], the MIC in experiment [1] (setting [8]) is 0.39 µg/mL (≈ 0.629 µM); in experiment [2] (setting [8]), 0.2 µg/mL (≈ 0.323 µM); in experiment [3] (setting [8]), 0.2 µg/mL (≈ 0.323 µM); in experiment [4] (setting [9]), 0.2 µg/mL (≈ 0.323 µM). For the same compound, the values for the MIC50 in experiment [5] (setting [10]), in experiment [6] (setting [11]) and in experiment [7] (setting [12]) were 3.13 µg/mL (≈ 5.05 µM), 3.13 µg/mL (≈ 5.05 µM) and less than 0.1 µg/mL, respectively.

For the compound `Cc1cc(C2=CCN(C(=N)N)CC2)ccc1-c1nnc(-c2ccc(C3=CCN(C(=N)N)CC3)cc2)n1C` [Example 21, 4-(4-(5-(4-(1-Carbamimidoyl-1,2,3,6-tetrahydropyridin-4-yl)-2-methylphenyl)-4-methyl-4H-1,2,4-triazol-3-yl)phenyl)-5,6-dihydropyridine-1(2H)-carboximidamide], the MIC in experiment [1] (setting [8]) came to 0.39 µg/mL (≈ 0.787 µM); in experiment [2] (setting [8]) it was 0.2 µg/mL (≈ 0.404 µM); in experiment [3] (setting [8]), 0.2 µg/mL (≈ 0.404 µM); in experiment [4] (setting [9]), 0.2 µg/mL (≈ 0.404 µM). The results for the MIC50 in experiment [5] (setting [10]), in experiment [6] (setting [11]) and in experiment [7] (setting [12]) were 3.13 µg/mL (≈ 6.32 µM), 6.25 µg/mL (≈ 12.6 µM) and 0.3 µg/mL (≈ 0.605 µM), respectively.

As to `CN1CCC(n2c(-c3ccc(C4=CCN(C(=N)N)CC4)cc3F)nnc2-c2ccc(C3=CCN(C(=N)N)CC3)cc2F)CC1` [Example 15, 4,4′-(4,4′-(4-(1-Methylpiperidin-4-yl)-4H-1,2,4-triazole-3,5-diyl)bis(3-fluoro-4,1-phenylene))bis(5,6-dihydropyridine-1(2H)-carboximidamide)], the MIC in experiment [1] (setting [8]) was 3.13 µg/mL (≈ 5.21 µM); in experiment [2] (setting [8]), 3.13 µg/mL (≈ 5.21 µM); in experiment [3] (setting [8]) it was 0.78 µg/mL (≈ 1.3 µM); in experiment [4] (setting [9]), less than 0.1 µg/mL. Further, the values for the MIC50 in experiment [5] (setting [10]), in experiment [6] (setting [11]) and in experiment [7] (setting [12]) were greater than 100 µg/mL, greater than 100 µg/mL and 25 µg/mL (≈ 41.6 µM), respectively.
